From patent US9408387B2, “Safening 6-amino-2-(substituted phenyl)-5-substituted-4-pyrimidinecarboxylate herbicide injury on cereal crops” (Dow AgroSciences LLC, priority 2009, dated 2016)

Key:
Type in all cases: in vivo
[1] = system: winter wheat (Triticum aestivum L; TRZAW); assay: Postemergence herbicidal safening in cereal crops, greenhouse, visual injury: winter wheat; settings: 20-22 d
Description: (§1) Evaluation of Postemergence Herbicidal Safening in Cereal Crops
(§2) Seeds of the desired test plant species were planted in Sun Gro MetroMix® 306 planting mixture, which typically has a pH of 6.0 to 6.8 and an organic matter content of about 30 percent, in plastic pots with a surface area of 103.2 square centimeters (cm^2). When required to ensure good germination and healthy plants, a fungicide treatment and/or other chemical or physical treatment was applied. The plants were grown for 7-36 days (d) in a greenhouse with an approximate 14-hour (h) photoperiod which was maintained at about 18° C. during the day and 17° C. during the night. Nutrients and water were added on a regular basis and supplemental lighting was provided with overhead metal halide 1000-Watt lamps as necessary. The plants were employed for testing when they reached the second or third true leaf stage.
(§3) Treatments consisted of the acids or esters of compounds 1-10 and cloquintocet-mexyl (CQC-M), fenchlorazole-ethyl, mefenpyr-diethyl alone and in combination. Weighed amounts of acid or methyl esters of the compounds of formula (I) were dissolved in a volume of 97:3 v/v acetone/dimethylsulfoxide (DMSO) to obtain concentrated solutions. […] The concentrated solutions of the test compound were diluted with the addition of an aqueous mixture containing acetone, water, isopropyl alcohol, DMSO, Agri-Dex crop oil concentrate, and Triton® X-77 surfactant in a 64.7:26.0:6.7:2.0:0.7:0.01 v/v ratio. Test compounds were diluted to the appropriate application rate with a dilution solution which was prepared by mixing the appropriate volume of 97:3 v/v acetone/DMSO and the appropriate volume of an aqueous mixture containing acetone, water, isopropyl alcohol, DMSO, Agri-Dex crop oil concentrate, and Triton® X-77 surfactant in a 64.7:26.0:6.7:2.0:0.7:0.01 v/v ratio. Compound requirements are based upon a 12 mL application volume at a rate of 187 liters per hectare (L/ha). The concentrated solutions of the safener were prepared following the same procedure. Weighed amounts of safener were dissolved in a volume of 97:3 v/v acetone/DMSO to obtain concentrated safener solutions.
(§4) Spray solutions of the herbicide safener and test compound mixtures were prepared by adding the concentrated solutions to the appropriate amount of dilution solution to form 12 mL spray solution with active ingredients in combinations.
(§5) Formulated compounds were applied to the plant material with an overhead Mandel track sprayer equipped with 8002E nozzles calibrated to deliver 187 L/ha over an application area of 0.503 square meters (m^2) at a spray height of 18 inches (43 centimeters (cm)) above average plant canopy. Control plants were sprayed in the same manner with the solvent blank.
(§6) The treated plants and control plants were placed in a greenhouse as described above and watered by sub-irrigation to prevent wash-off of the test compounds. After 20-22 d, the condition of the test plants as compared with that of the control plants was determined visually and scored on a scale of 0 to 100 percent where 0 corresponds to no injury and 100 corresponds to complete kill.
(§7) Colby's equation was used to determine the herbicidal effects expected from the mixtures (Colby, S. R. Calculation of the synergistic and antagonistic response of herbicide combinations. Weeds 1967, 15, 20-22.).
(§8) The following equation was used to calculate the expected activity of mixtures containing two active ingredients, A and B: Expected=A+B−(A×B/100)
(§9) A=observed efficacy of active ingredient A at the same concentration as used in the mixture.
(§10) B=observed efficacy of active ingredient B at the same concentration as used in the mixture.

[2] = system: winter barley (Hordeum vulgare L; HORVW); assay: Postemergence herbicidal safening in cereal crops, greenhouse, visual injury: winter barley; settings: 20-22 d
Description: as §1, §2, §3, §4, §5, §6, §7, §8, §9, §10

[3] = system: durum wheat (Triticum durum L; TRZDU); assay: Postemergence herbicidal safening in cereal crops, greenhouse, visual injury: durum wheat; settings: 20-22 d
Description: as §1, §2, §3, §4, §5, §6, §7, §8, §9, §10

GALAP = assay: Postemergence herbicidal activity, greenhouse, visual injury: GALAP; settings: 20-22 d
Description: as §1, §2, §3, §4, §5, §6, §7
The following equation was used to calculate the expected activity of mixtures containing two active ingredients, A and B: Expected=A+B−(A×B/100) […]

[4] = system: purple deadnettle (Lamium purpureum L; LAMPU); assay: Postemergence herbicidal activity, greenhouse, visual injury: purple deadnettle
Description: as §1, §2, §3, §4, §5, §6, §7, §8, §9, §10

[5] = system: wild mustard (Sinapis arvensis L.; SINAR); assay: Postemergence herbicidal activity, greenhouse, visual injury: SINAR
[6] = Compound 10 0, CQC-M 8.75 g ae/ha
[7] = Compound 10 0, CQC-M 17.5 g ae/ha
[8] = Compound 10 0, CQC-M 35 g ae/ha
[9] = Compound 10 0, CQC-M 70 g ae/ha
[10] = Compound 10 0, CQC-M 140 g ae/ha

## CCCCCC(C)OC(=O)COc1ccc(Cl)c2cccnc12 (stereo not drawn) [CQC-M, cloquintocet-mexyl, reference compound]
[1]; safener alone 0.547 g/ha
  TRZAW Ob (visual injury): 0%
[1]; safener alone 2.1875 g/ha
  TRZAW Ob (visual injury): 0%
[1]; safener alone 8.75 g/ha
  TRZAW Ob (visual injury): 0%
[1]; safener alone 35 g/ha
  TRZAW Ob (visual injury): 0%
[1]; safener alone 70 g/ha
  TRZAW Ob (visual injury): 0%
[1]; safener alone 140 g/ha
  TRZAW Ob (visual injury): 0%
[2]; safener alone 0.547 g/ha
  HORVW Ob (visual injury): 0%
[2]; safener alone 2.1875 g/ha
  HORVW Ob (visual injury): 0%
[2]; safener alone 8.75 g/ha
  HORVW Ob (visual injury): 0%
[2]; safener alone 35 g/ha
  HORVW Ob (visual injury): 0%
[2]; safener alone 70 g/ha
  HORVW Ob (visual injury): 0%
[2]; safener alone 140 g/ha
  HORVW Ob (visual injury): 0%
[3]; safener alone 0.547 g/ha
  TRZDU Ob (visual injury): 0%
[3]; safener alone 2.1875 g/ha
  TRZDU Ob (visual injury): 0%
[3]; safener alone 8.75 g/ha
  TRZDU Ob (visual injury): 0%
[3]; safener alone 35 g/ha
  TRZDU Ob (visual injury): 0%
[3]; safener alone 70 g/ha
  TRZDU Ob (visual injury): 15%
[3]; safener alone 140 g/ha
  TRZDU Ob (visual injury): 20%
GALAP; safener alone 35 g/ha
  GALAP Ob (visual injury): 0%
GALAP; safener alone 70 g/ha
  GALAP Ob (visual injury): 0%
GALAP; safener alone 140 g/ha
  GALAP Ob (visual injury): 0%
[4]; [6]
  LAMPU Ob (Observed values, % control): 0%
[4]; [7]
  LAMPU Ob (Observed values, % control): 0%
[4]; [8]
  LAMPU Ob (Observed values, % control): 0%
[4]; [9]
  LAMPU Ob (Observed values, % control): 0%
[4]; [10]
  LAMPU Ob (Observed values, % control): 0%
[4]; Lamium purpureum, post-emergence, 480 h, safener alone 35 g/ha, 20-22 d, read-out: LAMPU Ob (visual injury)
  pest or weed control at 35 g/ha: 0%
[4]; Lamium purpureum, post-emergence, 480 h, safener alone 140 g/ha, 20-22 d, read-out: LAMPU Ob (visual injury)
  pest or weed control at 140 g/ha: 0%
[5]; [6]
  SINAR Ob (Observed values, % control): 0%
[5]; [7]
  SINAR Ob (Observed values, % control): 0%
[5]; [8]
  SINAR Ob (Observed values, % control): 0%
[5]; [9]
  SINAR Ob (Observed values, % control): 0%
[5]; [10]
  SINAR Ob (Observed values, % control): 0%
